Laboratory results from paper PMC5920526 (ACS catalysis, 2017).

Key:
BiNanH2 = BiNanH2 (Bifidobacterium longum subsp. infantis, UniProt A0ACD7UU12); experiment: Sialidase inhibition, Neu5Acα2–3GalβpNP as substrate; format: biochemical; settings: for inhibitory activity against BiNanH2 (in words): 0.1 mM inhibitor
VcSialidase = VcSialidase (Vibrio cholerae serotype O1, UniProt P0C6E9); experiment: biochemical
SpNanB = SpNanB (Streptococcus pneumoniae serotype 4, UniProt Q54727); experiment: Sialidase inhibition, Neu5Acα2–3GalβpNP as substrate; format: biochemical; settings: 0.1 mM inhibitor
CpNanI = format: biochemical, Clostridium perfringens; settings: 0.1 mM inhibitor
SpNanC [1] = experiment: Sialidase inhibition, Neu5Acα2–3GalβpNP as substrate; format: biochemical, Streptococcus pneumoniae; settings: 0.1 mM inhibitor
CpNanH = CpNanH (Clostridium perfringens, UniProt P10481); format: biochemical
SpNanA = SpNanA (Streptococcus pneumoniae, UniProt P62575); experiment: biochemical; settings: for inhibitory activity against SpNanA (in words): 0.1 mM inhibitor; for IC50: read-out: IC50 against SpNanA, Neu5Acα2–3GalβpNP as substrate
AuSialidase = AuSialidase (Paenarthrobacter ureafaciens, UniProt Q5W7Q2); experiment: Sialidase inhibition, Neu5Acα2–3GalβpNP as substrate; format: biochemical, Arthrobacter ureafaciens; settings: for inhibitory activity against AuSialidase (in words): 0.1 mM inhibitor
PmST1 = PmST1 (Pasteurella multocida, UniProt Q15KI8); format: biochemical; settings: 0.1 mM inhibitor
[2] = biological target: human cytosolic sialidase hNEU2 (Homo sapiens, UniProt Q9Y3R4); experiment: Sialidase inhibition, Neu5Acα2–3GalβpNP as substrate; format: biochemical; settings: 0.1 mM inhibitor
SpNanC [3] = experiment: Kinetics studies of SpNanC; format: biochemical, Streptococcus pneumoniae; settings: substance as substrate of SpNanC
SpNanC [4] = experiment: Substrate specificity of SpNanC with pNP-tagged α2–3-linked sialosides; format: biochemical, Streptococcus pneumoniae; settings: sialoside as substrate of SpNanC
recombinant SpNanC = settings: substance as substrate of previously reported recombinant SpNanC; cited from earlier work

| Structure (SMILES) | inhibitory activity against SpNanB (in words) (SpNanB) | inhibitory activity against SpNanC (in words) (SpNanC [1]) | inhibitory activity against CpNanH (in words) (CpNanH) | inhibitory activity against PmST1 (in words) (PmST1) | Percentage conversion (SpNanC [4]) [%] | other results |
| --- | --- | --- | --- | --- | --- | --- |
| CC(=O)N[C@H]1[C@H]([C@H](O)[C@H](O)CO)OC(C(=O)O)=C[C@@H]1O [compound 6, 2,3-dehydro-2-deoxy-N-acetylneuraminic acid] | not effective inhibitors | not effective inhibitors | not effective inhibitors | not effective inhibitors | – | inhibition at 100 µM (BiNanH2; read-out: inhibition against BiNanH2): > 50%; inhibition at 100 µM (VcSialidase; read-out: inhibition against VcSialidase): > 50%; inhibition against CpNanI (CpNanI): more than 50%; inhibition at 100 µM (SpNanA; read-out: inhibition against SpNanA): > 50%; inhibition at 100 µM (AuSialidase; read-out: inhibition against AuSialidase): > 50% |
| O=C(Cc1ccccc1)N[C@H]1[C@H]([C@H](O)[C@H](O)CO)OC(C(=O)O)=C[C@@H]1O [compound 15, Neu5PhAc2en] | not effective inhibitors | not effective inhibitors | not effective inhibitors | not effective inhibitors | – | inhibitory activity against BiNanH2 (in words) (BiNanH2): not any bacterial sialidases tested; inhibitory activity against VcSialidase (in words) (VcSialidase): not any bacterial sialidases tested; inhibitory activity against CpNanI (in words) (CpNanI): not any bacterial sialidases tested; inhibitory activity against SpNanA (in words) (SpNanA): not any bacterial sialidases tested; inhibitory activity against hNEU2 (in words) [2]: retained inhibitory activity; inhibitory activity against AuSialidase (in words) (AuSialidase): not any bacterial sialidases tested |
| CC(=O)N[C@H]1[C@H]([C@H](O)[C@H](O)CO)OC(O[C@H]2[C@@H](O)[C@@H](CO)O[C@@H](Oc3ccc([N+](=O)[O-])cc3)[C@@H]2O)(C(=O)O)C[C@@H]1O (stereo partly drawn) [Neu5Acα2–3GalβpNP] | – | – | – | – | 85.1 ± 2.4 | Km (SpNanC [3]): 2700 ± 500 µM; kcat (SpNanC [3]): 406.8 ± 39.0 s⁻¹ |
| CC(=O)NC[C@@H](O)[C@@H](O)C1OC(C(=O)O)=CC(O)[C@H]1NC(C)=O (stereo partly drawn) [compound 9, Neu5Ac9NAc2en] | not effective inhibitors | not effective inhibitors | not effective inhibitors | not effective inhibitors | – | IC50 (BiNanH2; read-out: IC50 against BiNanH2, Neu5Acα2–3GalβpNP as substrate): 33 ± 1 µM; inhibitory activity against VcSialidase (in words) (VcSialidase): lowered the inhibitory activity; IC50 (SpNanA): 11 ± 0.2 µM; inhibitory activity against hNEU2 (in words) [2]: lowered the inhibitory activity; inhibitory activity against AuSialidase (in words) (AuSialidase): lowered the inhibitory activity |
| CC(=O)N[C@@H]1C(O)C=C(C(=O)O)OC1C[C@H](O)CO (stereo partly drawn) [compound 10, Neu5Ac7deoxy2en] | not effective inhibitors | not effective inhibitors | not effective inhibitors | not effective inhibitors | – | inhibitory activity against BiNanH2 (in words) (BiNanH2): not an effective inhibitor; inhibitory activity against VcSialidase (in words) (VcSialidase): not an effective inhibitor; inhibitory activity against CpNanI (in words) (CpNanI): selective inhibitory activity; inhibitory activity against SpNanA (in words) (SpNanA): selective inhibitory activity; IC50 (SpNanA): 10.7 ± 0.4 µM; inhibitory activity against hNEU2 (in words) [2]: but not hNEU2; inhibitory activity against AuSialidase (in words) (AuSialidase): selective inhibitory activity; IC50 (AuSialidase; read-out: IC50 against AuSialidase, Neu5Acα2–3GalβpNP as substrate): 17 ± 1 µM |
| O=C(CO)N[C@H]1[C@H]([C@H](O)[C@H](O)CO)OC(C(=O)O)=C[C@@H]1O [compound 7, 2,3-dehydro-2-deoxy-N-glycolylneuraminic acid] | not effective inhibitors | not effective inhibitors | not effective inhibitors | not effective inhibitors | – | inhibition against VcSialidase (VcSialidase): more than 50%; inhibition against hNEU2 [2]: more than 50% |
| CC(=O)N[C@H]1[C@H]([C@H](O)[C@H](O)CO)O[C@@](O[C@H]2[C@@H](O)[C@@H](CO)O[C@@H](O[C@H]3[C@H](O)[C@@H](O)C(O)O[C@@H]3CO)[C@@H]2O)(C(=O)O)C[C@@H]1O (stereo partly drawn) [α2–3-sialyllactose] | – | – | – | – | – | Km (recombinant SpNanC): 1080 ± 350 µM; kcat (recombinant SpNanC): 0.313 ± 0.052 s⁻¹ |
| O=C(O)C1(OC2C(O)C(CO)OC(Oc3ccc([N+](=O)[O-])cc3)C2O)CC(O)CC(C(O)C(O)CO)O1 (stereo not drawn) [Kdn5deoxyα2–3GalβpNP] | – | – | – | – | 5.31 ± 0.23 | – |
| O=C(O)[C@@]1(O[C@H]2[C@@H](O)[C@@H](CO)O[C@@H](Oc3ccc([N+](=O)[O-])cc3)[C@@H]2O)C[C@H](O)[C@@H](F)[C@H]([C@H](O)[C@H](O)CO)O1 [Kdn5Fα2–3GalβpNP] | – | – | – | – | 0.48 ± 0.00 | – |
| O=C(O)[C@]1(O[C@H]2[C@@H](O)[C@@H](CO)O[C@@H](Oc3ccc([N+](=O)[O-])cc3)[C@@H]2O)C[C@H](O)[C@@H](O)[C@H]([C@H](F)[C@H](O)CO)O1 [Kdn7Fα2–3GalβpNP] | – | – | – | – | 0.56 ± 0.11 | – |
| O=C(CO)NC1C(O)CC(OC2C(O)C(CO)OC(Oc3ccc([N+](=O)[O-])cc3)C2O)(C(=O)O)OC1C(O)C(O)CF (stereo not drawn) [Neu5Gc9Fα2–3GalβpNP] | – | – | – | – | 72.3 ± 2.6 | – |
| O=C(CF)NC1C(O)CC(OC2C(O)C(CO)OC(Oc3ccc([N+](=O)[O-])cc3)C2O)(C(=O)O)OC1C(O)C(O)CO (stereo not drawn) [Neu5AcFα2–3GalβpNP] | – | – | – | – | 74.8 ± 3.2 | – |
| C[C@@H](O)[C@@H](O)[C@@H]1O[C@@](O[C@H]2[C@@H](O)[C@@H](CO)O[C@@H](Oc3ccc([N+](=O)[O-])cc3)[C@@H]2O)(C(=O)O)C[C@H](O)[C@H]1NC(=O)CO [Neu5Gc9deoxyα2–3GalβpNP] | – | – | – | – | 85.5 ± 1.4 | – |
| COCC(=O)NC1C(O)CC(OC2C(O)C(CO)OC(Oc3ccc([N+](=O)[O-])cc3)C2O)(C(=O)O)OC1C(O)C(O)CO (stereo not drawn) [Neu5AcOMeα2–3GalβpNP] | – | – | – | – | 81.8 ± 1.7 | – |
| [N-]=[N+]=NC(C(O)CO)C1OC(OC2C(O)C(CO)OC(Oc3ccc([N+](=O)[O-])cc3)C2O)(C(=O)O)CC(O)C1O (stereo not drawn) [Kdn7N3α2–3GalβpNP] | – | – | – | – | 4.50 ± 0.45 | – |
| CO[C@H]1[C@H]([C@H](O)[C@H](O)CO)O[C@](O[C@H]2[C@@H](O)[C@@H](CO)O[C@@H](Oc3ccc([N+](=O)[O-])cc3)[C@@H]2O)(C(=O)O)C[C@@H]1O [Kdn5OMeα2–3GalβpNP] | – | – | – | – | 1.53 ± 1.02 | – |
